Measurements: PubChem BioAssay AID651648 (Sanford-Burnham Center for Chemical Genomics, 2012)
pEC50: −log10 of the molar value. Calls of active or inactive are those of the source. No rule for the calls is given here.

These molecules were tested against CRF-binding protein / CRF-R2 receptor complex (human) (assay: activators of CRF-R2 paired with CRF-BP – cell-based, 384-well, SAR follow-up (AID 651648)). Conditions: cells expressing CRF-BP/CRF-R2 complex, agonist read-out.

**Q.** How did the EC50 turn out when `CCOc1ccccc1N(CC(=O)N1CCOCC1)S(=O)(=O)c1cc(C(=O)OC)ccc1OC` was run?
**A.** > 20 µM (inactive)

**Q.** How did the pEC50 turn out when `CCc1nc2c(c(=O)c3ccccc3n2C)c(=O)n1C1CCCCCC1` was run?
**A.** 5.33

**Q.** For `Cc1c(-n2cc(C(=O)c3ccccc3O)cc(C#N)c2=O)c(=O)n(-c2ccccc2)n1C`, which EC50 is on record?
**A.** > 20 µM (inactive)

**Q.** For `O=C(CCn1c2c(c3ccccc31)CCCC2)NNC(=O)c1ccccc1C(=O)O`, which EC50 is on record?
**A.** > 20 µM (inactive)

**Q.** With `O=C(CC1CCCCC1)c1c(O)c2ccccc2oc1=O` as the molecule, how does the pEC50 read?
**A.** 5.25

**Q.** With `CC(=O)Nc1ccc(Sc2ccccc2C(=O)Nc2ccc(F)cc2)cn1` as the molecule, how does the EC50 read?
**A.** > 20 µM (inactive)

**Q.** How did the EC50 turn out when `CCOc1ccc(S(=O)(=O)N(CC(=O)N2CCOCC2)c2ccccc2)cc1` was run?
**A.** > 20 µM (inactive)

**Q.** `CC(=O)Nc1ccc(Sc2ncccc2C(=O)Nc2ccc(OC(F)(F)F)cc2)cn1` was tested. Which pEC50 did it give?
**A.** 5.27

**Q.** How did the EC50 turn out when `Cc1[nH]n(-c2cccc(Cl)c2)c(=O)c1-c1ccc(Cl)cc1` was run?
**A.** > 20 µM (inactive)

**Q.** `CC1(C)CSC(=NCc2ccccc2)N1` was tested. Which pEC50 did it give?
**A.** 5.11

**Q.** With `O=C(Nc1cc(Cl)cc(Cl)c1)c1coc(=O)c(Br)c1` as the molecule, how does the EC50 read?
**A.** > 20 µM (inactive)

**Q.** For `Cc1cc(=O)[nH]c(SCC(=O)Nc2ccc(Br)cc2)c1C#N`, which EC50 is on record?
**A.** > 20 µM (inactive)

**Q.** With `COc1ccc(CCn2c(C(C)C)nc3c(c(=O)c4ccccc4n3C)c2=O)cc1` as the molecule, how does the EC50 read?
**A.** > 20 µM (inactive)

**Q.** `CC1(C(=O)NC(=S)NNC(=O)c2ccncc2)CCCCC1` was tested. Which pEC50 did it give?
**A.** 5.23

**Q.** `CSCCC(NC(=O)c1ccco1)C(=O)OC(C)C(=O)NC(=O)NC1CCCCC1` (stereo unspecified) was tested. Which pEC50 did it give?
**A.** 5.79

**Q.** `Cc1ccc2oc(=O)c(/C=C(\O)c3sc(C)nc3C)nc2c1` was tested. Which EC50 did it give?
**A.** > 20 µM (inactive)

**Q.** With `CC(Oc1ccc(Br)cc1)C(=O)N1CCc2ccccc21` (stereo unspecified) as the molecule, how does the EC50 read?
**A.** > 20 µM (inactive)

**Q.** With `O=C(COC(=O)[C@H](Cc1ccccc1)NC(=O)c1ccco1)NCc1ccccc1` as the molecule, how does the pEC50 read?
**A.** 4.95

**Q.** With `CC(=O)Nc1cccc(OC(=O)c2ccoc2C)c1` as the molecule, how does the pEC50 read?
**A.** 5.03

**Q.** Which EC50 does the source give for `COc1ccc(S(=O)(=O)N(CC(=O)N2CCOCC2)c2ccccc2OC)cc1` here?
**A.** > 20 µM (inactive)

**Q.** `CCOc1ccccc1N(CC(=O)N1CCOCC1)S(=O)(=O)c1ccc(OC)cc1` was tested. Which pEC50 did it give?
**A.** 5.23

**Q.** With `O=C(NC(=O)c1ccccc1O)c1ccc(C(F)(F)F)cc1` as the molecule, how does the pEC50 read?
**A.** 4.87

**Q.** `CCOc1cccc(N(CC(=O)N2CCOCC2)S(=O)(=O)c2ccccc2)c1` was tested. Which EC50 did it give?
**A.** > 20 µM (inactive)

**Q.** For `CCOC(=O)c1sc(NC(=O)c2cc(-c3ccccc3)nc3ccccc23)c(C#N)c1C`, which EC50 is on record?
**A.** > 20 µM (inactive)

**Q.** How did the pEC50 turn out when `CSCCC(NC(=O)c1ccco1)C(=O)N1CC=C(c2ccccc2)CC1` (stereo unspecified) was run?
**A.** 4.87

**Q.** With `CCOc1ccccc1N(CC(=O)N1CCOCC1)S(=O)(=O)c1cccc(Br)c1` as the molecule, how does the pEC50 read?
**A.** 5.84

**Q.** How did the EC50 turn out when `CCOc1ccccc1N(CC(=O)N1CCC(C)CC1)S(=O)(=O)c1ccc(SC)cc1` was run?
**A.** > 20 µM (inactive)

**Q.** How did the EC50 turn out when `COc1ccc(CN2CCCCC2C)cc1C` (stereo unspecified) was run?
**A.** > 20 µM (inactive)

**Q.** `CCCCCCc1cc2cc(C(=O)NCc3ccccc3)c(=N)oc2cc1O` was tested. Which EC50 did it give?
**A.** > 20 µM (inactive)

**Q.** How did the EC50 turn out when `CCOc1ccccc1N(CC(=O)N1CCOCC1)S(=O)(=O)c1ccc(OC)cc1OC` was run?
**A.** > 20 µM (inactive)

**Q.** With `COc1ccc(NC(=O)c2ccccc2Sc2ccc(NC(C)=O)nc2)cc1` as the molecule, how does the EC50 read?
**A.** > 20 µM (inactive)

**Q.** `CC(=O)Nc1ccc(Sc2ncccc2C(=O)Nc2ccc(F)cc2)cn1` was tested. Which pEC50 did it give?
**A.** 6.02

**Q.** How did the pEC50 turn out when `Cc1cc(NC(=O)COC(=O)[C@H](Cc2ccccc2)NC(=O)c2ccco2)no1` was run?
**A.** 5.25

**Q.** Which EC50 does the source give for `CCOc1ccc(N(CC(=O)N2CCOCC2)S(=O)(=O)c2ccc(C)cc2)cc1` here?
**A.** > 20 µM (inactive)

**Q.** How did the EC50 turn out when `COc1ccc(NC(=O)c2cccnc2Sc2ccc(NC(C)=O)nc2)cc1` was run?
**A.** > 20 µM (inactive)

**Q.** How did the pEC50 turn out when `CCOc1ccccc1N(CC(=O)N1CCOCC1)S(=O)(=O)c1ccc(C)cc1` was run?
**A.** 5.55

**Q.** How did the EC50 turn out when `N#Cc1c(-c2ccccc2)cc(-c2ccccc2)nc1SCC(=O)NCC(=O)O` was run?
**A.** > 20 µM (inactive)

**Q.** How did the pEC50 turn out when `CCCCCn1nc(-c2ccccc2)c2nc3ccccc3nc21` was run?
**A.** 5.50

**Q.** `Cc1ccc(S(=O)(=O)NCC(=O)N(CC(=O)NCc2ccco2)Cc2ccccc2)cc1` was tested. Which pEC50 did it give?
**A.** 5.17

**Q.** How did the EC50 turn out when `CCOc1ccccc1N(CC(=O)N1CCOCC1)S(=O)(=O)c1ccccc1C#N` was run?
**A.** > 20 µM (inactive)

**Q.** With `O=C(O)c1ccc(COc2ccccc2C=C2C(=O)c3ccccc3C2=O)cc1` as the molecule, how does the EC50 read?
**A.** > 20 µM (inactive)

**Q.** For `CC(=O)Nc1ccc(Sc2ncccc2C(=O)Nc2ccc(F)cc2)cc1`, which EC50 is on record?
**A.** > 20 µM (inactive)

**Q.** How did the pEC50 turn out when `CCOc1ccccc1N(CC(=O)N1CCOCC1)S(=O)(=O)c1ccc(SC)cc1` was run?
**A.** 5.83

**Q.** `COc1ccccc1N(CC(=O)N1CCOCC1)S(=O)(=O)c1ccc(C)cc1` was tested. Which EC50 did it give?
**A.** > 20 µM (inactive)

**Q.** `CCOc1ccc(N(CC(=O)N2CCOCC2)S(=O)(=O)c2ccc(SC)cc2)cc1` was tested. Which EC50 did it give?
**A.** > 20 µM (inactive)

**Q.** Which EC50 does the source give for `CCOc1ccccc1N(CC(=O)N1CCOCC1)S(=O)(=O)c1ccc(C#N)cc1` here?
**A.** > 20 µM (inactive)
